# Measured values from patent US10736883B2, “Triazole furan compounds as agonists of the APJ receptor” (AMGEN INC., priority 2016, dated 2020).
# Target: APJ receptor (Homo sapiens (Human), UniProt P35414)
# Test: [35S]GTPγS binding assay on membranes from CHO cells stably expressing human APJ receptor
# Format: biochemical
# Settings: membranes of CHO cells stably expressing human APJ receptor, means of several independent experiments, read-out: Activity hAPJ SPA EC50 IP
# Method: The human APJ receptor was cloned by polymerase chain reaction and the gene encoding the receptor was subcloned in pFLAG-CMV™-3 expression vector (Sigma, Saint Louis, Mo. USA) in-house at Amgen. A GTPγS binding assay was performed on membranes prepared from CHO cells stably expressing human APJ receptor. The optimum experimental conditions for the concentrations of GDP, MgCl2, and NaCl in the assay buffer were initially determined. The assay was performed in assay buffer [20 mM HEPES, pH 7.5, 5 mM MgCl2, and 0.1% (w/v) BSA with 200 mM NaCl, 3 μM GDP] and membranes expressing human APJ receptor/well along with WGA PS beads. The reaction was initiated by addition of 0.2 nM [^35S]GTPγS (Perkin Elmer Life and Analytical Sciences, Waltham USA) in the absence or presence of various ligands and incubated at RT for 90 min. Nonspecific binding was determined in the presence of 100 μM GTPγS and was always less than 0.2% of total binding. All the results presented are means of several independent experiments and analyzed by non-linear regression methods using commercially available program Prism (GraphPad, San Diego, Calif.) to obtain EC50 detailed in Table 26.
# APJ receptor, sequence (P35414 whole entry): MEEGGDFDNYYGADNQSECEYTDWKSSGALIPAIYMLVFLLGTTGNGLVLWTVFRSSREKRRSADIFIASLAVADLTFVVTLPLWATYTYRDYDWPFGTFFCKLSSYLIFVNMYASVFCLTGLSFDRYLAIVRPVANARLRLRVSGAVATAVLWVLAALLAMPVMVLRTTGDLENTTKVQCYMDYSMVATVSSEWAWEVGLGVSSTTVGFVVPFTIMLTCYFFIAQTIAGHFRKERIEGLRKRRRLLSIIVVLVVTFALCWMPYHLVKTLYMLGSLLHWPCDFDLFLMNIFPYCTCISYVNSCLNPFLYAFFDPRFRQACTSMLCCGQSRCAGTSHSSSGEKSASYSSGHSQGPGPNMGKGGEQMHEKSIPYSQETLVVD
row,Compound,EC50
1,"COc1cccc(OC)c1-n1c(NS(=O)(=O)[C@H]2C[C@@H](O)CN(c3ccc(F)c(C#N)c3)C2)nnc1-c1ccc(C)o1 (racemic) [Example 329.0, (3S,5R)-1-(3-Cyano-4-fluorophenyl)-N-(4-(2,6-dimethoxyphenyl)-5-(5-methyl-2-furanyl)-4H-1,2,4-triazol-3-yl)-5-hydroxy-3-piperidinesulfonamide and (3R,5S)-1-(3-cyano-4-fluorophenyl)-N-(4-(2,6-dimethoxyphenyl)-5-(5-methyl-2-furanyl)-4H-1,2,4-triazol-3-yl)-5-hydroxy-3-piperidinesulfonamide]",0.38 nM
2,"COc1cccc(OC)c1-n1c(NS(=O)(=O)[C@@H]2CCCN(C(=O)N(C)C)C2)nnc1-c1ccco1.COc1cccc(OC)c1-n1c(NS(=O)(=O)[C@H]2CCCN(C(=O)N(C)C)C2)nnc1-c1ccco1 (mixture of isomers) [Example 338.0, (R)-3-(N-(4-(2,6-Dimethoxyphenyl)-5-(furan-2-yl)-4H-1,2,4-triazol-3-yl)sulfamoyl)-N,N-dimethylpiperidine-1-carboxamide and (S)-3-(N-(4-(2,6-dimethoxyphenyl)-5-(furan-2-yl)-4H-1,2,4-triazol-3-yl)sulfamoyl)-N,N-dimethylpiperidine-1-carboxamide]",19 nM
3,"CCO[C@H](c1ncc(C)cn1)[C@H](C)S(=O)(=O)Nc1nnc(-c2ccc(C)o2)n1-c1c(OC)cccc1OC (single isomer, unassigned) [Example 118.0]",0.084 nM
4,"COc1cccc(OC)c1-n1c(NS(=O)(=O)[C@@H](C)C2(O)COC2)nnc1-c1ccc(C)o1 (single isomer, unassigned) [Example 311.0, (1S)—N-(4-(2,6-Dimethoxyphenyl)-5-(5-methyl-2-furanyl)-4H-1,2,4-triazol-3-yl)-1-(3-hydroxy-3-oxetanyl)ethanesulfonamide or (1R)—N-(4-(2,6-dimethoxyphenyl)-5-(5-methyl-2-furanyl)-4H-1,2,4-triazol-3-yl)-1-(3-hydroxy-3-oxetanyl)ethanesulfonamide]",190 nM
5,"CC[C@H](Cc1ncc(F)cn1)S(=O)(=O)Nc1nnc(-c2ccco2)n1-c1c(OC)cccc1OC (single isomer, unassigned) [Example 136.0, (R)—N-(4-(2,6-Dimethoxyphenyl)-5-(furan-2-yl)-4H-1,2,4-triazol-3-yl)-1-(5-fluoropyrimidin-2-yl)butane-2-sulfonamide or (S)—N-(4-(2,6-dimethoxyphenyl)-5-(furan-2-yl)-4H-1,2,4-triazol-3-yl)-1-(5-fluoropyrimidin-2-yl)butane-2-sulfonamide]",19 nM
6,"COc1cccc(OC)c1-n1c(NS(=O)(=O)[C@@H](C)[C@H](O)c2ncc(C#N)cc2F)nnc1-c1ccc(C)o1 (single isomer, unassigned) [Example 68.0]",0.37 nM
7,"COCCO[C@H](c1ncc(C)cn1)[C@H](C)S(=O)(=O)Nc1nnc(-c2ccc(C)o2)n1-c1c(OC)cccc1OC [Example 120.0, (1R,2S)—N-(4-(2,6-Dimethoxyphenyl)-5-(5-methylfuran-2-yl)-4H-1,2,4-triazol-3-yl)-1-(2-methoxyethoxy)-1-(5-methylpyrimidin-2-yl)propane-2-sulfonamide]",0.15 nM
8,"COc1cccc(OC)c1-n1c(NS(=O)(=O)C[C@H](O)c2ccc(C#N)cn2)nnc1-c1ccc(C)o1 (single isomer, unassigned) [Example 58.0, (2R)-2-(5-cyano-2-pyridinyl)-N-(4-(2,6-dimethoxyphenyl)-5-(5-methyl-2-furanyl)-4H-1,2,4-triazol-3-yl)-2-hydroxyethanesulfonamide or (2S)-2-(5-cyano-2-pyridinyl)-N-(4-(2,6-dimethoxyphenyl)-5-(5-methyl-2-furanyl)-4H-1,2,4-triazol-3-yl)-2-hydroxyethanesulfonamide]",0.13 nM
9,"(1R,2R)-N-(4-(2,6-dimethoxyphenyl)-5-(5-methyl-2-furanyl)-4H-1,2,4-triazol-3-yl)-1-methoxy-1-(5-methyl-2-pyrimidinyl)-2-propanesulfonamide or (1S,2S)-N-(4-(2,6-dimethoxyphenyl)-5-(5-methyl-2-furanyl)-4H-1,2,4-triazol-3-yl)-1-methoxy-1-(5-methyl-2-pyrimidinyl)-2-propanesulfonamide [Example 226.0]",0.35 nM
10,"COc1cccc(OC)c1-n1c(NS(=O)(=O)[C@H](C)[C@@H](O)c2ncc(F)cn2)nnc1-c1ccc(C)o1 [Example 211.0, (1S,2R)-N-(4-(2,6-dimethoxyphenyl)-5-(5-methylfuran-2-yl)-4H-1,2,4-triazol-3-yl)-1-(5-fluoropyrimidin-2-yl)-1-hydroxypropane-2-sulfonamide]",4.1 nM
11,"COc1cccc(OC)c1-n1c(NS(=O)(=O)[C@H](C)[C@@H](O)c2coc(C)n2)nnc1-c1ccc(C)o1 (single isomer, unassigned) [Example 303.0, (1R,2S)—N-(4-(2,6-Dimethoxyphenyl)-5-(5-methyl-2-furanyl)-4H-1,2,4-triazol-3-yl)-1-hydroxy-1-(2-methyl-1,3-oxazol-4-yl)-2-propanesulfonamide or (1S,2R)—N-(4-(2,6-dimethoxyphenyl)-5-(5-methyl-2-furanyl)-4H-1,2,4-triazol-3-yl)-1-hydroxy-1-(2-methyl-1,3-oxazol-4-yl)-2-propanesulfonamide]",13 nM
12,"COc1cccc(OC)c1-n1c(NS(=O)(=O)[C@H](C)Cc2cncnc2)nnc1-c1ccco1 (single isomer, unassigned) [Example 45.0, (2R)—N-(4-(2,6-dimethoxyphenyl)-5-(2-furanyl)-4H-1,2,4-triazol-3-yl)-1-(5-pyrimidinyl)-2-propanesulfonamide or (2S)—N-(4-(2,6-dimethoxyphenyl)-5-(2-furanyl)-4H-1,2,4-triazol-3-yl)-1-(5-pyrimidinyl)-2-propanesulfonamide]",72 nM
13,"COc1cccc(OC)c1-n1c(NS(=O)(=O)[C@H](C)Cc2ccc(Br)cn2)nnc1-c1ccco1 (single isomer, unassigned) [Example 23.0, (2R)-1-(5-bromo-2-pyridinyl)-N-(4-(2,6-dimethoxyphenyl)-5-(2-furanyl)-4H-1,2,4-triazol-3-yl)-2-propanesulfonamide or (2S)-1-(5-bromo-2-pyridinyl)-N-(4-(2,6-dimethoxyphenyl)-5-(2-furanyl)-4H-1,2,4-triazol-3-yl)-2-propanesulfonamide]",0.36 nM
14,"COc1cccc(OC)c1-n1c(NS(=O)(=O)[C@H](C)Cc2ccc(C)nn2)nnc1-c1ccco1 (single isomer, unassigned) [Example 42.0, (2R)—N-(4-(2,6-dimethoxyphenyl)-5-(2-furanyl)-4H-1,2,4-triazol-3-yl)-1-(6-methyl-3-pyridazinyl)-2-propanesulfonamide or (2S)—N-(4-(2,6-dimethoxyphenyl)-5-(2-furanyl)-4H-1,2,4-triazol-3-yl)-1-(6-methyl-3-pyridazinyl)-2-propanesulfonamide]",12 nM
15,"COc1cccc(OC)c1-n1c(NS(=O)(=O)[C@H](C)Cc2ncc(F)cn2)nnc1-c1cc(C)c(C)o1 (single isomer, unassigned) [Example 89.0, (R)—N-(4-(2,6-Dimethoxyphenyl)-5-(4,5-dimethylfuran-2-yl)-4H-1,2,4-triazol-3-yl)-1-(5-fluoropyrimidin-2-yl)propane-2-sulfonamide or (S)—N-(4-(2,6-dimethoxyphenyl)-5-(4,5-dimethylfuran-2-yl)-4H-1,2,4-triazol-3-yl)-1-(5-fluoropyrimidin-2-yl)propane-2-sulfonamide]",1.9 nM
16,"COCC(COC)n1c(NS(=O)(=O)[C@@H](C)[C@@H](OC(C)C)c2ncc(Cl)cn2)nnc1-c1ccc(C)o1 [Example 392.0, (1S,2S)-1-(5-chloro-2-pyrimidinyl)-N-(4-(1,3-dimethoxy-2-propanyl)-5-(5-methyl-2-furanyl)-4H-1,2,4-triazol-3-yl)-1-(2-propanyloxy)-2-propanesulfonamide]",0.55 nM
17,"COc1cccc(OC)c1-n1c(NS(=O)(=O)CCc2ncc(Cl)cc2C2=CCN(C)CC2)nnc1-c1ccco1 [Example 214.0, 2-(5-Chloro-1′-methyl-1′,2′,3′,6′-tetrahydro-3,4′-bipyridin-2-yl)-N-(4-(2,6-dimethoxyphenyl)-5-(2-furanyl)-4H-1,2,4-triazol-3-yl)ethanesulfonamide]",0.21 nM
18,"COc1cccc(OC)c1-n1c(NS(=O)(=O)[C@@H](C)[C@](C)(F)c2ncc(C#N)cn2)nnc1-c1ccc(C)o1 (single isomer, unassigned) [Example 230.0]",0.41 nM
19,"COc1cccc(OC)c1-n1c(NS(=O)(=O)[C@H](C)[C@H](OC)c2cn3ccccc3n2)nnc1-c1ccc(C)o1 (single isomer, unassigned) [Example 268.0, (1S,2S)—N-(4-(2,6-Dimethoxyphenyl)-5-(5-methyl-2-furanyl)-4H-1,2,4-triazol-3-yl)-1-imidazo[1,2-a]pyridin-2-yl-1-methoxy-2-propanesulfonamide or (1R,2R)—N-(4-(2,6-dimethoxyphenyl)-5-(5-methyl-2-furanyl)-4H-1,2,4-triazol-3-yl)-1-imidazo[1,2-a]pyridin-2-yl-1-methoxy-2-propanesulfonamide]",0.47 nM
